Reference: PMC8922279, “Identification of β-Lactams Active against Mycobacterium tuberculosis by a Consortium of Pharmaceutical Companies and Academic Institutions” (ACS Infectious Diseases, 2022)

Columns and labels:
P. aeruginosa = assay: Microbial spectrum, P. aeruginosa; type: cell-based, Pseudomonas aeruginosa; conditions: clavulanate 4 μg/mL; Table S4
plasma proteins [1] = assay: Plasma protein binding (equilibrium dialysis), beagle dog; conditions: 2 μM
Caco-2 cells = assay: Caco-2 permeability / efflux transporter substrate; conditions: for Caco-2 Mean Papp A to B / Caco-2 Mean Papp B to A: 3 μM, pH 7.4, 120 min
plasma proteins [2] = assay: Plasma protein binding (equilibrium dialysis), SD rat; conditions: 2 μM
S. aureus = assay: Microbial spectrum, S. aureus; type: cell-based, Staphylococcus aureus; conditions: clavulanate 4 μg/mL; Table S4
[3] = In vitro plasma stability, cynomolgus monkey plasma; conditions: 2 μM, 37 °C, time point 120 min
Mtb H37Rv [4] = assay: MIC90 against nonreplicating (NR, 4-stress) Mtb H37Rv, with or without clavulanate; type: cell-based, Mycobacterium tuberculosis; conditions: 4-stress nonreplicating, Table S4; for Mtb H37Rv NR + CLAV (MIC90): clavulanate 4 μg/mL; for Mtb H37Rv NR (MIC90): no clavulanate
C. albicans = assay: Microbial spectrum, C. albicans; type: cell-based, Candida albicans; conditions: no clavulanate; Table S4
E. coli = assay: Microbial spectrum, E. coli; type: cell-based, Escherichia coli; conditions: clavulanate 4 μg/mL; Table S4
[5] = Mouse PK in uninfected CD-1 mice (i.v. and p.o.)
Mtb H37Rv [6] = assay: MIC90 against replicating (R) Mtb H37Rv, with or without clavulanate; type: cell-based, Mycobacterium tuberculosis; conditions: Table S4; for Mtb H37Rv R + CLAV (MIC90): clavulanate 4 μg/mL; for Mtb H37Rv R (MIC90): no clavulanate
plasma proteins [7] = assay: Plasma protein binding (equilibrium dialysis), human; conditions: 2 μM
[8] = Stability in fasted simulated intestinal fluid (FaSSIF); conditions: 10 μM, pH 6.5, room temperature
plasma proteins [9] = assay: Plasma protein binding (equilibrium dialysis), CD-1 mouse; conditions: 2 μM
plasma proteins [10] = assay: Plasma protein binding (equilibrium dialysis), cynomolgus monkey; conditions: 2 μM
[11] = In vitro plasma stability, SD rat plasma; conditions: 2 μM, 37 °C, time point 120 min
[12] = In vitro plasma stability, beagle dog plasma; conditions: 2 μM, 37 °C, time point 120 min
[13] = In vitro plasma stability, CD-1 mouse plasma; conditions: 2 μM, 37 °C, time point 120 min
[14] = In vitro plasma stability, human plasma; conditions: 2 μM, 37 °C, time point 120 min
[15] = Stability in simulated gastric fluid (SGF); conditions: 10 μM, pH 1.2, room temperature
wild-type Mtb H37Rv = type: in vivo, 129sv DHP-1 knockout mice
[16] = female, 129sv DHP-1 knockout, mouse, in vivo
in vivo = conditions: female, 129sv DHP-1 knockout, mouse, sc, 50 mg/kg

Structure (SMILES) | P.aeruginosa R + CLAV (MIC90) (P. aeruginosa) [µM] | % bound to plasma, Beagle Dog (plasma proteins [1]) [%] | Caco-2 Mean Papp A to B (Caco-2 cells) | Caco-2 Mean Papp B to A (Caco-2 cells) | Caco-2 Mean Recovery % A to B (Caco-2 cells; Caco-2) [%] | Caco-2 Mean Recovery % B to A (Caco-2 cells; Caco-2) [%] | Caco-2 Rank Papp (Caco-2 cells; Caco-2) | % bound to plasma, SD Rat (plasma proteins [2]) [%] | S.aureus R + CLAV (MIC90) (S. aureus) [µM] | Plasma stability % Remaining, Monkey [3] [%] | Mtb H37Rv NR + CLAV (MIC90) (Mtb H37Rv [4]) [µM] | Mtb H37Rv NR (MIC90) (Mtb H37Rv [4]) [µM] | C.albicans R (MIC90) (C. albicans) [µM] | E.coli R + CLAV (MIC90) (E. coli) [µM] | AUC[0-5h] ([5]; i.v. dosing (5 mg/kg)) [ng·h/mL] | Vd ([5]; i.v. dosing (5 mg/kg)) [L/kg] | clearance ([5]; i.v. dosing (5 mg/kg)) [mL/min/kg] | half-life ([5]; i.v. dosing (5 mg/kg)) [min] | k el ([5]; i.v. dosing (5 mg/kg)) [h⁻¹] | Mtb H37Rv R + CLAV (MIC90) (Mtb H37Rv [6]) [µM] | further results
CCc1nnc(SCC2=C(C(=O)O)N3C(=O)[C@@H](NC(=O)Cc4ccc(C5=NCCN5)cc4)[C@H]3SC2)s1 [TBBL-0000310] | > 100 | 30.5 | 0.46 10-6 cm/s | 0.43 10-6 cm/s | 99.13 | 102.93 | Low | 81.2 | 0.9 | 110.3 | 92.2 | 90.4 | > 100 | 49.9 | 39113 | 0.09 | 2.13 | 28.8 | 1.45 | 0.5 | Caco-2 Efflux Ratio (Caco-2 cells; Caco-2): 0.94; Efflux Transporter Substrate (Caco-2 cells; Caco-2): Poor or no; AUC[0-5h] ([5]; p.o. dosing (25 mg/kg)): 614 ng·h/mL; bioavailability ([5]; p.o. dosing (25 mg/kg)): 0.34%; Mtb H37Rv R (MIC90) (Mtb H37Rv [6]): 16.4 µM; % bound to plasma, Human (plasma proteins [7]): 60.7%; FaSSIF Stability, % remaining, 6h [8]: 98.8%; FaSSIF Stability, % remaining, 24h [8]: 95.07%; % bound to plasma, CD-1 Mouse (plasma proteins [9]): 49.9%; % bound to plasma, Cynomolgus Monkey (plasma proteins [10]): 56.2%; Plasma stability % Remaining, Rat [11]: 80.0%; Plasma stability % Remaining, Dog [12]: 79.6%; Plasma stability % Remaining, Mouse [13]: 82.2%; Plasma stability % Remaining, Human [14]: 78.9%; SGF Stability, % remaining, 1h ([15]; 1 h): 86.27%; SGF Stability, % remaining, 24h ([15]; 24 h): 0.61%
O=C(O)C1=C(CSc2cccc[n+]2[O-])CS[C@@H]2[C@H](NC(=O)C(F)c3ccccc3)C(=O)N12 (stereo partly drawn) [TBBL-0000004] | > 100 | 59.2 | < 0.12 10-6 cm/s | < 0.11 10-6 cm/s | < 98.09 | < 112.70 | Low | 62.0 | 1.4 | 103.9 | 2.3 | 1.7 | > 100 | > 100 | 5075 | 1.02 | 16.4 | 32.4 | 0.96 | 1.5 | Mtb H37Rv R (MIC90) (Mtb H37Rv [6]): 1.2 µM; % bound to plasma, Human (plasma proteins [7]): 74.1%; FaSSIF Stability, % remaining, 6h [8]: 88.58%; FaSSIF Stability, % remaining, 24h [8]: 94.96%; % bound to plasma, CD-1 Mouse (plasma proteins [9]): 65.5%; % bound to plasma, Cynomolgus Monkey (plasma proteins [10]): 78.2%; Plasma stability % Remaining, Rat [11]: 71.0%; Plasma stability % Remaining, Dog [12]: 64.1%; Plasma stability % Remaining, Mouse [13]: 84.1%; Plasma stability % Remaining, Human [14]: 81.0%
C=CC1=C(C(=O)O)N2C(=O)[C@@H](NC(=O)/C(=N\O)c3csc(N)n3)[C@H]2SC1 [Cefdinir, reference compound] |  |  |  |  |  |  |  |  |  |  |  |  |  |  |  |  |  |  |  |  | Log10 CFU per mouse (lungs), Mean (wild-type Mtb H37Rv; 50 mg/kg sc bid + clavulanate 100 mg/kg po bid, days 9-15, lungs day 16, untreated day 16 mean 9.1): 8.5 Log10 CFU; effect on lung CFU (in words) (wild-type Mtb H37Rv; mouse, in vivo): lower lung CFU count compared to untreated mice; Tlast [16]: 1.0 h; AUC(0-t) (in vivo): 4630 ng·h/mL; Cmax (in vivo): 8730 ng/mL; Tmax (in vivo): 30 min
